# Measurements as given in US7470680B2, “Constrained compounds as CGRP-receptor antagonists” (Bristol-Myers Squibb Company, priority 2006, dated 2008).
# Biological target: CGRP receptor (Homo sapiens, UniProt O60894+Q16602)
# Assay: CGRP radioligand binding assay ([125I]-CGRP displacement, SK-N-MC homogenate)
# Set-up: endogenous in cells; host or cells: SK-N-MC cells (homogenate/membrane pellet)
# Conditions: Table 1; displacement of [125I]-CGRP, SK-N-MC membranes
# Procedure: CGRP Binding Assay. Tissue Culture. SK-N-MC cells were grown at 37° C. in 5% CO2 as a monolayer in medium consisting of MEM with Earle's salts and L-glutamine (Gibco) supplemented with 10% fetal bovine serum (Gibco). Cell Pellets. The cells were rinsed twice with phosphate-buffered saline (155 mM NaCl, 3.3 mM Na2HPO4, 1.1 mM KH2PO4, pH 7.4), and incubated for 5-10 min. at 4° C. in hypotonic lysis buffer consisting of 10 mM Tris (pH 7.4) and 5 mM EDTA. The cells were transferred from plates to polypropylene tubes (16×100 mm) and homogenized using a polytron. Homogenates were centrifuged at 32,000×g for 30 min. The pellets were resuspended in cold hypotonic lysis buffer with 0.1% mammalian protease inhibitor cocktail (Sigma) and assayed for protein concentration. The SK-N-MC homogenate was then aliquoted and stored at −80° C. until needed.
# Radioligand Binding Assay. The compounds of invention were solubilized and carried through serial dilutions using 100% DMSO. Aliquots from the compound serial dilutions were further diluted 25 fold into assay buffer (50 mM Tris-Cl pH 7.5, 5 mM MgCl2, 0.005% Triton X-100) and transferred (volume 50 μl) into 96 well assay plates. [^125I]-CGRP (Amersham Biosciences) was diluted to 60 pM in assay buffer and a volume of […] was added to each well. SK-N-MC pellets were thawed, diluted in assay buffer with fresh 0.1% mammalian protease inhibitor cocktail (Sigma), and homogenized again. SK-N-MC homogenate (5 μg/well) was added in a volume of 100 μl. The assay plates were then incubated at room temperature for 2 h. Assays were stopped by addition of excess cold wash buffer (20 mM Tris-Cl pH 7.5, 0.1% BSA) immediately followed by filtration over glass fiber filters (Whatman GF/B) previously soaked in 0.5% PEI. Non-specific binding was defined with 1 μM beta-CGRP. Protein bound radioactivity was determined using a gamma or scintillation counter. The IC50 was defined as the concentration of a compound of invention required to displace 50% of radioligand binding.
# Sequence of CGRP receptor (Q16602 23-461): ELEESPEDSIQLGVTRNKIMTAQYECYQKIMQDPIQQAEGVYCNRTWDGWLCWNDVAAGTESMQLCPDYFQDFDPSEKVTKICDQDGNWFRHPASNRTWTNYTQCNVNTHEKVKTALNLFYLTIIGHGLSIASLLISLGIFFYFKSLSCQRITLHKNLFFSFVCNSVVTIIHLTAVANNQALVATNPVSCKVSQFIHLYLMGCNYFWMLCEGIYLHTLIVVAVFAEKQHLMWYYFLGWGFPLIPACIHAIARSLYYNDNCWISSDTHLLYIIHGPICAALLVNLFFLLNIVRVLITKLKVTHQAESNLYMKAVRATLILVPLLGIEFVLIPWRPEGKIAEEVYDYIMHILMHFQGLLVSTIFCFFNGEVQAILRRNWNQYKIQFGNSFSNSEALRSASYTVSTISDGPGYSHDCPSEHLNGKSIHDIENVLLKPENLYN
# Sequence of CGRP receptor (O60894 27-148): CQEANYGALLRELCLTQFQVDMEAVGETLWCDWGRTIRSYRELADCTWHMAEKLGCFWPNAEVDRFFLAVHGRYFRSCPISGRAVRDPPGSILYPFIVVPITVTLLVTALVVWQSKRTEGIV
row,SMILES,IC50 [nM]
1,Cn1ncc2c3c(cc(Cl)c21)C[C@@H](CC(=O)N1CCC(N2CCc4ccccc4NC2=O)CC1)C(=O)N(CC(F)(F)F)C3,0.01 to 10
2,O=C(C[C@@H]1Cc2cc(Cl)c3[nH]nc(Cl)c3c2CN(CC(F)(F)F)C1=O)N1CCC(n2c(=O)[nH]c3ncccc32)CC1,0.01 to 10
3,O=C(O[C@@H]1Cc2cc(Cl)c3[nH]ncc3c2CN(CC(F)(F)F)C1=O)N1CCC(N2CCc3ccccc3NC2=O)CC1,0.01 to 10
4,CC(C)(C)CN1Cc2c(cc(Cl)c3[nH]ncc23)C[C@@H](CC(=O)N2CCC(c3cc4scc(Br)c4[nH]c3=O)CC2)C1=O,0.01 to 10
5,CC(C)(C)CN1Cc2c(cc(Cl)c3[nH]ccc23)C[C@@H](CC(=O)N2CCC(c3cc4[nH]ccc4[nH]c3=O)CC2)C1=O,0.01 to 10
6,O=C(C[C@@H]1Cc2cc(Cl)c3c(cnn3Cc3ccccc3)c2CN(CC(F)(F)F)C1=O)N1CCC(n2c(=O)[nH]c3ncccc32)CC1,10 to 100

# The remaining lines, values ahead:
row,IC50 [nM],SMILES
1,> 1000,O=C(C[C@@H]1Cc2cc(Cl)c3[nH]ncc3c2CN(CC(F)(F)F)C1=O)N1CCC(N2CCN(c3ccccc3F)C2=O)CC1
2,10 to 100,N#Cc1cn(C2CCN(C(=O)C[C@@H]3Cc4cc(Cl)c5[nH]ncc5c4CN(CC(F)(F)F)C3=O)CC2)c(=O)[nH]1
3,0.01 to 10,O=C(C[C@@H]1Cc2cc(Cl)c3[nH]ncc3c2CN(CC(F)(F)F)C1=O)N1CCC(n2c(=O)[nH]c3ncccc32)CC1
4,0.01 to 10,O=C(C[C@@H]1Cc2cc(Cl)c3[nH]ncc3c2CN(CC(F)(F)F)C1=O)N1CCC(N2CCc3cccnc3NC2=O)CC1
5,100 to 1000,O=C1NC(=O)C(C2CCN(C(=O)C[C@@H]3Cc4cc(Cl)c5[nH]ncc5c4CN(CC(F)(F)F)C3=O)CC2)N1 (stereo partly drawn)
6,> 1000,O=C(C[C@@H]1Cc2cc(Cl)c3[nH]ncc3c2CN(CC(F)(F)F)C1=O)N1CCC(n2ccn(-c3ccccc3F)c2=O)CC1
7,0.01 to 10,CC(C)(C)CN1Cc2c(cc(Cl)c3[nH]ncc23)C[C@@H](CC(=O)N2CCC(c3cc4sc(Br)cc4[nH]c3=O)CC2)C1=O (mixture of isomers)

# Same assay, conditions: Table 2; displacement of [125I]-CGRP, SK-N-MC membranes
row,SMILES,IC50 [nM]
1,CC(C)(C)CN1Cc2c(cc(Cl)c3[nH]ncc23)C[C@@H](N/C(=N/C#N)N2CCC(c3cc4ccccc4[nH]c3=O)CC2)C1=O,0.01 to 10
2,O=C(N[C@@H]1Cc2cc3cn[nH]c3cc2CN(Cc2ccccc2)C1=O)N1CCC(N2Cc3ccccc3NC2=O)CC1,0.01 to 10
3,CC(C)(C)CN1Cc2c(ccc3[nH]ncc23)CC(N/C(=N/C#N)N2CCC(N3Cc4ccccc4NC3=O)CC2)C1=O (stereo not drawn),0.01 to 10
4,CC(C)(C)CN1Cc2c(ccc3[nH]ncc23)C[C@@H](NC(=O)N2CCC3(CC2)CC(=O)Nc2ccccc23)C1=O,> 1000
5,CC(C)(C)CN1Cc2c(cc(Cl)c3[nH]ncc23)C[C@@H](CC(=O)N2CCC(c3cc4cccnc4[nH]c3=O)CC2)C1=O,0.01 to 10

# Further lines, results first:
row,IC50 [nM],SMILES
1,0.01 to 10,O=C(C[C@@H]1Cc2cc(Br)c3[nH]ncc3c2CN(CC(F)(F)F)C1=O)N1CCC(c2cc3ccccc3[nH]c2=O)CC1
2,0.01 to 10,O=C(C[C@@H]1Cc2cc(Cl)c3[nH]ncc3c2CN(CC(F)(F)F)C1=O)N1CCC(c2cc3cccnc3[nH]c2=O)CC1
3,10 to 100,CCc1cc2c(c3cn[nH]c13)CN(CC(F)(F)F)C(=O)[C@H](CC(=O)N1CCC(c3cc4cccc(F)c4[nH]c3=O)CC1)C2
